Biological target: T1, Human M4 (Homo sapiens, UniProt P08173)
T1 construct: Human or rat M4 cDNA, along with the chimeric G protein Gq,5, were transfected into Chinese hamster ovary (CHO-K1) cells; expressed in transfected cells; host or cells: CHO-K1 (M4/Gqi5/CHO)
T1 sequence (P08173 1-479): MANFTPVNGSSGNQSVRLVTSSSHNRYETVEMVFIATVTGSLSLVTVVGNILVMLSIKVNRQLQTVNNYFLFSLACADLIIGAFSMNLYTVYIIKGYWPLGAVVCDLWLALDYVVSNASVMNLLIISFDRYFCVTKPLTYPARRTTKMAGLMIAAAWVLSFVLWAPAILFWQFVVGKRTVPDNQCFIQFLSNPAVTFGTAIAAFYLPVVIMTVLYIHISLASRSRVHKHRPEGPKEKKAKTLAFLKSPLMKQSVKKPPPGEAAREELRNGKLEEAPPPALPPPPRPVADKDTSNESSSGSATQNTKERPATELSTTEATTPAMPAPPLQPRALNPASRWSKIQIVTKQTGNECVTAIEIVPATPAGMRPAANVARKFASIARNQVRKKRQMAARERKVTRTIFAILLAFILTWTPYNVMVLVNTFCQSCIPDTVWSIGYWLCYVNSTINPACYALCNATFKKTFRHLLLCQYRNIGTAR
Assay: mAChR M4 cell-based functional assay (calcium flux, decrease of EC80 acetylcholine response)
Conditions: for Human M4 Emin: % ACh maximum at 30 μM; for IC50: CHO-K1 cells with human M4 and Gqi5, EC80 acetylcholine
Outline: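 CHO-K1 cells stably co-expressing M4 with chimeric Gqi5, loaded with Fluo-4 AM for 50 min at 37 °C; compounds added as 10-point 1:3 curves, then acetylcholine at EC20 (143 s) and EC80 (268 s). Calcium read by FDSS fluorescence ratio; IC50 from four-parameter fit of decrease in EC80 acetylcholine response.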

| Compound | Human M4 Emin [%] | IC50 [nM] |
| --- | --- | --- |
| [2H]C([2H])(N1C[C@H]2C[C@H](Nc3ccc(-c4cc(F)cc(F)c4F)nn3)C[C@H]2C1)C1(C)CCCOC1 (stereo partly drawn) [Compound 49, (3aR,5s,6aS)-2-((3-methyltetrahydro-2H-pyran-3-yl)methyl-d2)-N-(6-(2,3,5-trifluorophenyl)pyridazin-3-yl)octahydrocyclopenta[c]pyrrol-5-amine] | 2 | 25.8 |
| [2H]C([2H])(N1C[C@H]2C[C@H](Nc3ccc(-c4cc(F)cc(F)c4F)nn3)C[C@H]2C1)C1(C)CCCCO1 (stereo partly drawn) [Compound 50, (3aR,5s,6aS)-2-((2-methyltetrahydro-2H-pyran-2-yl)methyl-d2)-N-(6-(2,3,5-trifluorophenyl)pyridazin-3-yl)octahydrocyclopenta[c]pyrrol-5-amine] | 2 | 6.89 |
| CC(C)(C)CCN1C[C@H]2C[C@H](Nc3ccc(-c4cc(F)cc(F)c4F)nn3)C[C@H]2C1 [Compound 51, (3aR,5s,6aS)-2-(3,3-dimethylbutyl)-N-(6-(2,3,5-trifluorophenyl)pyridazin-3-yl)octahydrocyclopenta[c]pyrrol-5-amine] | 3 | 32 |
| CC1(O)CC(CN2C[C@H]3C[C@H](Nc4ccc(-c5cc(F)cc(F)c5F)nn4)C[C@H]3C2)C1 (stereo partly shown) [Compound 52] | 3 | 17 |
| CC(C)(C)OCCN1C[C@H]2C[C@H](Nc3ccc(-c4cc(F)cc(F)c4F)nn3)C[C@H]2C1 [Compound 53, (3aR,5s,6aS)-2-(2-(tert-butoxy)ethyl)-N-(6-(2,3,5-trifluorophenyl)pyridazin-3-yl)octahydrocyclopenta[c]pyrrol-5-amine] | 3 | 2.6 |
| CC(C)(O)CCN1C[C@H]2C[C@H](Nc3ccc(-c4cc(F)cc(F)c4F)nn3)C[C@H]2C1 [Compound 54, 2-methyl-4-((3aR,5s,6aS)-5-((6-(2,3,5-trifluorophenyl)pyridazin-3-yl)amino)hexahydrocyclopenta[c]pyrrol-2(1H)-yl)butan-2-ol] | 5 | 160 |
| [2H]C([2H])(C1CC(C)(O)C1)N1C[C@H]2C[C@H](Nc3ccc(-c4cc(F)cc(F)c4F)nn3)C[C@H]2C1 (stereo partly drawn) [Compound 55, 1-methyl-3-(((3aR,5s,6aS)-5-((6-(2,3,5-trifluorophenyl)pyridazin-3-yl)amino)hexahydrocyclopenta[c]pyrrol-2(1H)-yl)methyl-d2)cyclobutan-1-ol] | 5 | 15 |
| [2H]C([2H])(COC(C)(C)C)N1C[C@H]2C[C@H](Nc3ccc(-c4cc(F)cc(F)c4F)nn3)C[C@H]2C1 [Compound 56, (3aR,5s,6aS)-2-(2-(tert-butoxy)ethyl-1,1-d2)-N-(6-(2,3,5-trifluorophenyl)pyridazin-3-yl)octahydrocyclopenta[c]pyrrol-5-amine] | 3 | 3 |
| Fc1cc(F)c(F)c(-c2ccc(N[C@H]3C[C@@H]4CN(CC5CC(F)(F)C5)C[C@@H]4C3)nn2)c1 [Compound 57, (3aR,5s,6aS)-2-((3,3-difluorocyclobutyl)methyl)-N-(6-(2,3,5-trifluorophenyl)pyridazin-3-yl)octahydrocyclopenta[c]pyrrol-5-amine] | 3 | 25 |
| Fc1ccc(OCCN2C[C@H]3C[C@H](Nc4ccc(-c5cc(F)cc(F)c5F)nn4)C[C@H]3C2)cc1 [Compound 58, (3aR,5s,6aS)-2-(2-(4-fluorophenoxy)ethyl)-N-(6-(2,3,5-trifluorophenyl)pyridazin-3-yl)octahydrocyclopenta[c]pyrrol-5-amine] | 4 | 170 |
| COc1ccc(OCCN2C[C@H]3C[C@H](Nc4ccc(-c5cc(F)cc(F)c5F)nn4)C[C@H]3C2)cc1 [Compound 59, (3aR,5s,6aS)-2-(2-(4-methoxyphenoxy)ethyl)-N-(6-(2,3,5-trifluorophenyl)pyridazin-3-yl)octahydrocyclopenta[c]pyrrol-5-amine] | 2 | 60 |
| Fc1cc(F)c(F)c(-c2ccc(N[C@H]3C[C@@H]4CN(CCC(F)(F)F)C[C@@H]4C3)nn2)c1 [Compound 60, (3aR,5s,6aS)-N-(6-(2,3,5-trifluorophenyl)pyridazin-3-yl)-2-(3,3,3-trifluoropropyl)octahydrocyclopenta[c]pyrrol-5-amine] | 13 | 810 |
| OC1(CN2C[C@H]3C[C@H](Nc4ccc(-c5cc(F)cc(F)c5F)nn4)C[C@H]3C2)CCCC1 [Compound 61, 1-(((3aR,5s,6aS)-5-((6-(2,3,5-trifluorophenyl)pyridazin-3-yl)amino)hexahydrocyclopenta[c]pyrrol-2(1H)-yl)methyl)cyclopentan-1-ol] | 2 | 2.3 |
| OC1(CN2C[C@H]3C[C@H](Nc4ccc(-c5cc(F)cc(F)c5F)nn4)C[C@H]3C2)CCCCCC1 [Compound 62] | 3 | 3300 |
| OC1(CN2C[C@H]3C[C@H](Nc4ccc(-c5cc(F)cc(F)c5F)nn4)C[C@H]3C2)C2CC3CC(C2)CC1C3 (stereo partly drawn) [Compound 63, 2-(((3aR,5s,6aS)-5-((6-(2,3,5-trifluorophenyl)pyridazin-3-yl)amino)hexahydrocyclopenta[c]pyrrol-2(1H)-yl)methyl)adamantan-2-ol] | 3 | 78 |
| CC(C)C(O)CN1C[C@H]2C[C@H](Nc3ccc(-c4cc(F)cc(F)c4F)nn3)C[C@H]2C1 (stereo partly drawn) [Compound 64, 3-methyl-1-((3aR,5s,6aS)-5-((6-(2,3,5-trifluorophenyl)pyridazin-3-yl)amino)hexahydrocyclopenta[c]pyrrol-2(1H)-yl)butan-2-ol] | 5 | 7.3 |
| OC1CCCCC1N1C[C@H]2C[C@H](Nc3ccc(-c4cc(F)cc(F)c4F)nn3)C[C@H]2C1 (stereo partly drawn) [Compound 65, 2-((3aR,5s,6aS)-5-((6-(2,3,5-trifluorophenyl)pyridazin-3-yl)amino)hexahydrocyclopenta[c]pyrrol-2(1H)-yl)cyclohexan-1-ol] | 6 | 350 |
| [2H]C([2H])([C@@H]1CCCOC1)N1C[C@H]2C[C@H](Nc3ccc(-c4cc(F)cc(F)c4F)nn3)C[C@H]2C1 [Compound 66, (3aR,5s,6aS)-2-(((S)-tetrahydro-2H-pyran-3-yl)methyl-d2)-N-(6-(2,3,5-trifluorophenyl)pyridazin-3-yl)octahydrocyclopenta[c]pyrrol-5-amine] | 3 | 12 |
| Fc1cc(F)c(F)c(-c2ccc(N[C@H]3C[C@@H]4CN(CC5CCSCC5)C[C@@H]4C3)nn2)c1 [Compound 67, (3aR,5s,6aS)-2-((tetrahydro-2H-thiopyran-4-yl)methyl)-N-(6-(2,3,5-trifluorophenyl)pyridazin-3-yl)octahydrocyclopenta[c]pyrrol-5-amine] | 3 | 4 |
| Fc1cc(F)c(F)c(-c2ccc(N[C@H]3C[C@@H]4CN(CC5CC6(COC6)C5)C[C@@H]4C3)nn2)c1 [Compound 68, (3aR,5s,6aS)-2-((2-oxaspiro[3.3]heptan-6-yl)methyl)-N-(6-(2,3,5-trifluorophenyl)pyridazin-3-yl)octahydrocyclopenta[c]pyrrol-5-amine] | 3 | 0.36 |

Reference: patent publication US20230150986A1, “ANTAGONISTS OF THE MUSCARINIC ACETYLCHOLINE RECEPTOR M4” (Vanderbilt University, priority 2019, published 2023)
